Reference: US6924298B2, “2-(3,5-Disubstituted-4-pyridyl)-4-(thienyl, thiazolyl or arylphenyl)-1,3-oxazoline compounds” (Dow AgroSciences LLC, priority 2000, dated 2005)
Like-named read-outs stand apart in the source and are kept apart here.

Key:
Assay type in all cases: in vivo
[1] = test system: cotton aphid (Aphis gossypii); test: Insecticidal test for cotton aphid, spray on infested squash cotyledons; conditions: Aphis gossypii, 72 h, read-out: CA: activity at 50 ppm against cotton aphid (% Control rating)
Description: Insecticidal Test for Cotton Aphid (Aphis gossypii)
To prepare spray solutions, 1 mg of each test compound was dissolved into 1 mL of a 90:10 acetone:ethanol solvent. This 1 mL of chemical solution was added to 19 mL of water containing 0.05% Tween 20 surfactant to produce a 50 ppm spray solution.
Squash cotyledons were infested with cotton aphid (all life stages)16-20 hours prior to application of spray solution. The solution was sprayed on both sides of each infested squash cotyledon (0.5 mL×2 each side) with a sweeping action until runoff. The plants were allowed to air dry and held for 3 days in a controlled room at 26° C. and 40% RH after which time the test was graded. Grading was by actual count using a dissecting microscope and comparison of test counts to the untreated check. Results are given in Tables 1-4 as percent control based on population reduction versus the untreated.

[2] = test system: sweetpotato whitefly (Bemisia tabacia); test: Insecticidal test for sweetpotato whitefly, spray on cotton plants; conditions: 312 h, 200 ppm spray, large nymphs counted after 13 days, read-out: WF: activity at 200 ppm against whitefly (% Control rating)
Description: Insecticidal Test for Sweetpotato Whitefly (Bemisia tabacia)
Four mg of each test compound was dissolved by adding 4 mL of a 90:10 acetone:ethanol solvent mixture to the vial containing the sample compound. This solution was added to 16 mL of water containing 0.05% Tween 20 surfactant to produce 20 mL of a 200 ppm spray solution.
Five-week-old cotton plants reared in a greenhouse were stripped of all foliage except for the two uppermost true leaves that were greater than 5 cm in diameter.
These plants were then placed into a laboratory colony of whiteflies for two days for oviposition by the colony females. All whiteflies were then removed from the test plants with pressurized air. The spray solution was then applied to the test plants with a hand-held syringe fitted with hollow cone nozzle. One mL of spray solution was applied to each leaf top and bottom for a total of 4 mL per plant. Four replications of each test compound utilized a total of 16 mL spray solution. Plants were air dried and then placed in a holding chamber (28° C. and 60% RH) for 13 days. Compound efficacy was evaluated by counting, under an illuminated magnifying glass, the number of large nymphs (3rd-4th instar) per leaf.
Percent control based on reduction of large nymphs of a test compound compared to solution-only (no test compound) sprayed plants is reported in Tables 1-4.

[3] = test system: two-spotted spider mite (Tetranychus urticae); test: Insecticidal test for two-spotted spider mite, ovicide method on cotton leaf discs; conditions: Tetranychus urticae, foliar, 144 h, hatched larvae after 6 days, read-out: SM: activity against two-spotted spider mite (% Control rating)
Description: Insecticidal Test for Two-Spotted Spider Mite (Tetranychus urticae) Ovicide Method: Ten adult female two-spotted spider mites were placed on eight 2.2 cm leaf discs of cotton leaf, allowed to oviposit over 24 hours, and thereafter removed. […] Discs were placed on an agar substrate and held at 24° C. and 90% RH for 6 days.

[4] = test system: beet armyworm (Spodoptera exigua); test: Insecticidal test for beet armyworm, treated lepidopteran diet; conditions: Spodoptera exigua, 120 h, read-out: BAW: activity at 400 ppm against beet armyworm (% Control rating)
Description: (§1) Insecticidal Test for Tobacco Budworm (Heliothis virescens), Beet Armyworm (Spodoptera exigua), and Cabbage Looper (Trichoplusia ni).
(§2) To prepare the test solution, the test compound was formulated at 400 ppm in 7.5 mL of 2 acetone:1 tap water. 250 μL of the test solution was pipetted upon the surface of 8 mL of lepidopteran diet (modified Shorey) contained in each of five one-ounce plastic cups (one cup=1 replication). A second-instar beet armyworm was placed upon the treated diet in each cup once the solvent had air-dried. The solutions remaining after completing applications to the one-ounce cups were then used as leaf-dip solutions for 3.5 cm leaf discs cut from cabbage leaves and cotton cotyledons. Five discs of each type of plant were dipped until thoroughly coated into each rate of each compound (=5 replications of each treatment). After air-drying, the treated leaf discs were placed individually into one-ounce plastic cups. Each dried, treated cotton cotyledon disc was infested with a 2nd instar tobacco budworm larva, and each cabbage leaf disc was infested with a 2nd instar cabbage looper larva. Cups containing the treated substrates and larvae were capped and then held in a growth chamber at 25° C., 50-55% RH, and 14 hr light: 10 hr dark for 5 days.

[5] = test system: cabbage looper (Trichoplusia ni); test: Insecticidal test for cabbage looper, treated cabbage leaf disc; conditions: Trichoplusia ni, foliar, 120 h, read-out: CL: activity at 400 ppm against cabbage looper (% Control rating)
Description: as §1, §2

[6] = 50 ppm spray, squash cotyledons, all life stages, 3 days
[7] = 400 ppm, treated diet surface, second-instar larvae, 5 days
[8] = 400 ppm, leaf-dip cabbage leaf disc, 2nd instar larvae, 5 days

SMILES | pest or weed control at 50 ppm [1, 6] [%] | pest or weed control at 200 ppm [2] [%] | pest or weed control [3] [%] | pest or weed control at 400 ppm [4, 7] [%] | pest or weed control at 400 ppm [5, 8] [%] | pest or weed control at 50 ppm [1] [%] | pest or weed control at 400 ppm [4] [%] | pest or weed control at 400 ppm [5] [%]
Clc1cncc(Cl)c1C1=NC(c2ccccc2)CO1 (centres unmarked) [Compound 1] | < 50 | < 50 |  |  |  |  |  | 
Clc1ccc(C2COC(c3c(Cl)cncc3Cl)=N2)cc1 (centres unmarked) [Compound 2] | 90 to 100 | < 50 | < 50 |  |  |  |  | 
Fc1ccc(C2COC(c3c(Cl)cncc3Cl)=N2)cc1 (centres unmarked) [Compound 3] | 80 to 89 | 80 to 89 |  |  |  |  |  | 
Clc1cncc(Cl)c1C1=NC(c2ccc(Br)cc2)CO1 (centres unmarked) [Compound 4, 2-(3,5-dichloro-4-pyridinyl)-4-(4-bromophenyl)oxazoline] | 90 to 100 |  | 90 to 100 |  |  |  |  | 
FC(F)(F)Oc1ccc(-c2ccc(C3COC(c4c(Cl)cncc4Cl)=N3)cc2)cc1 (centres unmarked) [Compound 6] | 90 to 100 | < 50 | 90 to 100 | 90 to 100 | 90 to 100 |  |  | 
COc1ccc(-c2ccc(C3COC(c4c(Cl)cncc4Cl)=N3)cc2)cn1 (centres unmarked) [Compound 7] |  |  | 90 to 100 | 60 to 69 | 80 to 89 |  |  | 
Cc1ccc(-c2ccc(C3COC(c4c(Cl)cncc4Cl)=N3)cc2)cc1C (centres unmarked) [Compound 8] |  |  |  |  |  | 80 to 89 | 90 to 100 | 80 to 89
Cc1ccc(-c2ccc(C3COC(c4c(Cl)cncc4Cl)=N3)cc2)cc1 (centres unmarked) [Compound 9] |  |  |  |  |  | 90 to 100 | 90 to 100 | 
Cc1ccc(-c2ccc(C3COC(c4c(Cl)cncc4Cl)=N3)cc2)s1 (centres unmarked) [Compound 10] |  |  |  |  |  | 60 to 69 | 80 to 89 | 90 to 100
Clc1cncc(Cl)c1C1=NC(c2ccc(I)cc2)CO1 (centres unmarked) [Compound 11, 2-(3,5-dichloro-4-pyridinyl)-4-(4-iodophenyl)oxazoline] | 90 to 100 | 90 to 100 | 90 to 100 |  |  |  |  | 
Clc1cncc(Cl)c1C1=NC(c2ccc(-c3ccc4c(c3)OCO4)cc2)CO1 (centres unmarked) [Compound 13] | 80 to 89 |  | < 50 | 60 to 69 | 90 to 100 |  |  | 
Fc1ccc(-c2ccc(C3COC(c4c(Cl)cncc4Cl)=N3)cc2)cc1F (centres unmarked) [Compound 14] | 60 to 69 |  | 90 to 100 | 80 to 89 |  |  |  | 
FC(F)(F)c1cccc(-c2ccc(C3COC(c4c(Cl)cncc4Cl)=N3)cc2)c1 (centres unmarked) [Compound 15] | < 50 |  | < 50 | 90 to 100 | 90 to 100 |  |  | 
Clc1ccccc1-c1ccc(C2COC(c3c(Cl)cncc3Cl)=N2)cc1 (centres unmarked) [Compound 18] | 50 to 59 |  | < 50 |  | 80 to 89 |  |  | 
Fc1cccc(-c2ccc(C3COC(c4c(Cl)cncc4Cl)=N3)cc2)c1 (centres unmarked) [Compound 19] | < 50 | < 50 | 90 to 100 |  | 60 to 69 |  |  | 
Clc1cccc(-c2ccc(C3COC(c4c(Cl)cncc4Cl)=N3)cc2)c1 (centres unmarked) [Compound 20] |  |  |  |  |  | < 50 |  | 90 to 100
Fc1ccc(-c2ccc(C3COC(c4c(Cl)cncc4Cl)=N3)cc2)cc1 (centres unmarked) [Compound 21] | 90 to 100 | < 50 | 90 to 100 | 80 to 89 |  |  |  | 

SMILES | pest or weed control at 50 ppm [1, 6] [%] | pest or weed control at 200 ppm [2] [%] | pest or weed control [3] [%] | pest or weed control at 400 ppm [4, 7] [%] | pest or weed control at 400 ppm [5, 8] [%] | pest or weed control at 50 ppm [1] [%] | pest or weed control at 400 ppm [4] [%] | pest or weed control at 400 ppm [5] [%]
FC(F)(F)c1ccccc1-c1ccc(C2COC(c3c(Cl)cncc3Cl)=N2)cc1 (centres unmarked) [Compound 22] | 70 to 79 |  |  |  |  |  |  | 
Fc1ccccc1-c1ccc(C2COC(c3c(Cl)cncc3Cl)=N2)cc1 (centres unmarked) [Compound 23] | 90 to 100 |  | 90 to 100 | 60 to 69 | 90 to 100 |  |  | 
FC(F)(F)c1cc(-c2ccc(C3COC(c4c(Cl)cncc4Cl)=N3)cc2)cc(C(F)(F)F)c1 (centres unmarked) [Compound 24] | < 50 | < 50 |  | 90 to 100 |  |  |  | 
Cc1ccccc1-c1ccc(C2COC(c3c(Cl)cncc3Cl)=N2)cc1 (centres unmarked) [Compound 25] | 80 to 89 |  |  | 90 to 100 | < 50 |  |  | 
Cc1ccc(-c2ccc(C3COC(c4c(Cl)cncc4Cl)=N3)cc2)cc1F (centres unmarked) [Compound 26] | 60 to 69 |  |  | 60 to 69 | 60 to 69 |  |  | 
Clc1cncc(Cl)c1C1=NC(c2ccc(-c3ccccc3)cc2)CO1 (centres unmarked) [Compound 28] | < 50 |  | 90 to 100 | 80 to 89 |  |  |  | 
Cc1ccc(-c2ccc(C3COC(c4c(Cl)cncc4Cl)=N3)cc2)c(F)c1 (centres unmarked) [Compound 33] | < 50 |  |  | 80 to 89 |  |  |  | 
Fc1ccc(C(F)(F)F)cc1-c1ccc(C2COC(c3c(Cl)cncc3Cl)=N2)cc1 (centres unmarked) [Compound 34] | 80 to 89 |  |  | 60 to 69 | 90 to 100 |  |  | 
CSc1ccc(-c2ccc(C3COC(c4c(Cl)cncc4Cl)=N3)cc2)cc1 (centres unmarked) [Compound 35] | < 50 |  |  | 90 to 100 | 90 to 100 |  |  | 
FCSc1ccc(-c2ccc(C3COC(c4c(Cl)cncc4Cl)=N3)cc2)cc1 (centres unmarked) [Compound 37] | 90 to 100 |  | < 50 |  | 60 to 69 |  |  | 
Fc1cncc(F)c1C1=NC(c2ccc(I)cc2)CO1 (centres unmarked) [Compound 38, 2-(3,5-difluoro-4-pyridinyl)-4-(4-iodophenyl)oxazoline] | < 50 | 90 to 100 | 90 to 100 | 70 to 79 |  |  |  | 
Fc1cncc(F)c1C1=NC(c2ccc(-c3ccc(OC(F)(F)F)cc3)cc2)CO1 (centres unmarked) [Compound 40] | < 50 |  | 90 to 100 | 90 to 100 | 90 to 100 |  |  | 
Cc1cc(Br)ccc1C1COC(c2c(Cl)cncc2Cl)=N1 (centres unmarked) [Compound 41, 4-[4-(4-bromo-2-methylphenyl)-4,5-dihydro-1,3-oxazol-2-yl]-3,5-dichloropyridine] | 90 to 100 | < 50 | < 50 |  |  |  |  | 
CCOc1ccc(-c2ccc(C3COC(c4c(Cl)cncc4Cl)=N3)c(C)c2)cc1 (centres unmarked) [Compound 42] | 80 to 89 |  | 90 to 100 | 90 to 100 | 80 to 89 |  |  | 
C[C@H]1OC(c2c(Cl)cncc2Cl)=N[C@H]1c1ccc(I)cc1 [Compound 45, 4-[4-(4′-Iodophenyl)-5-methyl-4,5-dihydro-oxazol-2-yl]-3,5-dichloropyridines] | 90 to 100 |  |  |  |  |  |  | 
C[C@@H]1OC(c2c(Cl)cncc2Cl)=N[C@H]1c1ccc(I)cc1 [Compound 46, 4-[4-(4′-Iodophenyl)-5-methyl-4,5-dihydro-oxazol-2-yl]-3,5-dichloropyridines] | < 50 |  | < 50 |  |  |  |  | 
